One may read the IC50 as the concentration that gives 50% inhibition.

Entries after “also recorded” stand apart in the source; their conditions may differ. A value given as a limit tells only on which side of the number the result lay.

The subject of test [1] is airway smooth muscle (bronchial rings). The experiment in a line: Relaxation of evoked isometric force of bronchial rings (wire myograph). The test is classed as cell-based, mice. The settings on record: for relaxation of MCh-evoked force at final concentration of 500 μM: 500 μM final, bronchi ring isometric assay; for IC50: MCh-evoked force, dose dependent; for relaxation of evoked force of airway smooth muscle / bronchial rings: in vitro, concentration not given. The procedure: Briefly, the entire respiratory tree was rapidly removed and immersed in Krebs-Henseleit buffer (118.1 mM NaCl, 4.7 mM KCl, 1.2 mM MgSO4, 2.5 mM CaCl2, 1.0 mM NaH2PO4, 25 mM NaHCO3 and 11.1 mM glucose, pH 7.4). Bronchial rings, 2 mm in length, were isolated from pulmonary bronchi using a dissection microscope. Then the bronchial segments were mounted in a small-vessel wire myograph chamber (Danish Myo Technology, Aarhus, Denmark) by threading on two steel wires (40 μm in diameter) secured to two supports. One support was attached to a force transducer for measurements of isometric force development, and the other was attached to a micrometer controlling ring circumference. The preparation was kept in the chamber, immersed in 5 ml of Krebs-Henseleit solution, bubbled with 5% CO2 and 95% O2 and maintained at 37° C. The initial isometric tension of bronchial ring was set to 0 mN prior to equilibration for 20 min. The bronchial ring was then stretched in order to keep the force at 5 mN followed by an additional equilibration for 20 min. The isometric forces produced by bronchial ring was recorded with a data acquisition and analysis program (Danish Myo Technology, Aarhus, Denmark).
The robust relaxation effect and low risk of toxicity of KE on airway smooth muscle indicates its promising prospects for development. To identify the active ingredients of KE, the KE was divided into three parts including EtOAc phase, n-BuOH phase and water phase using EtOAc and n-BuOH sequential extraction. Upon the airway smooth muscle rings reached a relative steady contraction state evoked by MCh, accumulated volume of these three phases was added to assess the relaxation capacity. […] On the other hand, 1 μL of EtOAc phase just relaxed the rings to 90%.
Their dose-responsive effect on relaxation of airway smooth muscle was measured. When the force evoked by acetylcholine reached a relatively steady state, kudinosides were added to the bath in cumulative concentrations (0.1 μM, 0.3 μM, 1 μM, 3 μM, 10 μM, 30 μM). […] When the concentration of kudinoside D increased to 10 μM, about 50% of the force was relaxed. Strikingly, upon treatment with 30 μM of kudinoside D, more than 80% of the force was relaxed (FIG. 5B). Similarly, 30 μM of kudinoside A also led to 80% inhibition of evoked force. Note that the relaxation effect of kudinosides was completely reversible, because the relaxed muscles restored response to MCh after washing off.

For test [2], the system named is asthmatic airway constriction in acute asthma mouse model. The experiment in a line: Airway resistance (Rrs, FlexiVent) in OVA-induced, methacholine-challenged asthma mice. The settings on record: for inhibition of airway constriction in vivo: mouse. The test is classed as in vivo, C57BL/6 mice. The procedure: Asthma mice were established as reported previously. Briefly, six to eight-week-old female C57BL/6 mice were carried out by intraperitoneal injection of 100 μg ovalbumin and 4 mg Imject Alum (ThermoFisher Scientific) in total volume of 0.2 mL on days 0 and 14. These mice were then challenged with 1.5%-2% aerosolized ovalbumin for 1 h on days 24, 25 and 26. The efficacy of drugs was evaluated by measuring airway resistance in these mice 24 h after the last challenge.
(§1) The airway resistance was measured through an invasive method as described in previous reports. In brief, the mice were anesthetized with 240 mg/kg Avertin and the trachea was cannulated with an 18-gauge metal needle. Mechanical ventilation (FlexiVent; SCIREQ Inc., Montreal, Canada) was applied at a frequency of 150 breaths per minute, a tidal volume of 10 ml/kg, and positive end-expiratory pressure of 2.5 cm H2O. Prior to methacholine challenge, deep inflation was applied followed by administration of aerosolized PBS to obtain stabilization of airway resistance (Rrs, cmH2O·s/mL). The Rrs after PBS was considered to be the baseline. Then mice were challenged with sequential concentrations of methacholine with a dose of 2.0, 4.0, 8.0, 16, 32 and 64 mg/mL by an ultrasonic nebulizer until reaching bronchoconstrictive phase that was four to five folds greater than baseline. Three minutes after the last dose of methacholine inhalation, the reagents were delivered by the same ultrasonic nebulizer. The Rrs measurements were performed every 30 s throughout the experiments. The negative control for these studies was PBS, because all the solvents for reagents used here were PBS. As a positive control, albuterol (3 μg; Sigma), the most widely used β-agonist as an effective bronchodilator for asthma therapy, was used.
as §1, with “Acute asthma model mice were established as reported previously. Briefly, six to eight-week-old female C57BL/6 mice were carried out by intraperitoneal injection of 100 μg ovalbumin and 4 mg Imject Alum (ThermoFisher Scientific) in total volume of 0.2 mL on days 0 and 14. These mice were then challenged with 1.5%-2% aerosolized ovalbumin for 1 h on days 24, 25 and 26. The efficacy of drugs by measuring airway resistance in these mice 24 h was evaluated after the last challenge. The airway” for “The airway”

For another test, the system named is human asthma (severe). Briefly: Kudinoside A inhalation (atomization device) in two volunteers with severe asthma syndromes. The test is classed as in vivo. The settings on record: volunteer; for time to release of dyspnea: kudinoside A 20 mM inhaled for 15 seconds, albuterol as control. The procedure: In order to test the effect of single substance in KE extract on asthma therapy, two volunteers with severe asthma syndromes were treated with kudinoside A (20 mM) with an atomization device.

In the next test the target is T1, L-type calcium channel (Mus musculus, UniProt Q01815).
T1 construct: endogenous in cells; host or cells: primary airway smooth muscle cells
Briefly: Whole-cell patch clamp recording of VDCC currents in primary airway smooth muscle cells. The settings on record: 50 μM; room temperature; pulses −60 to +50 mV from −80 mV. The test is classed as cell-based. (Patch clamp records ionic current or voltage across a cell membrane.)

T1 sequence (Q01815 whole entry): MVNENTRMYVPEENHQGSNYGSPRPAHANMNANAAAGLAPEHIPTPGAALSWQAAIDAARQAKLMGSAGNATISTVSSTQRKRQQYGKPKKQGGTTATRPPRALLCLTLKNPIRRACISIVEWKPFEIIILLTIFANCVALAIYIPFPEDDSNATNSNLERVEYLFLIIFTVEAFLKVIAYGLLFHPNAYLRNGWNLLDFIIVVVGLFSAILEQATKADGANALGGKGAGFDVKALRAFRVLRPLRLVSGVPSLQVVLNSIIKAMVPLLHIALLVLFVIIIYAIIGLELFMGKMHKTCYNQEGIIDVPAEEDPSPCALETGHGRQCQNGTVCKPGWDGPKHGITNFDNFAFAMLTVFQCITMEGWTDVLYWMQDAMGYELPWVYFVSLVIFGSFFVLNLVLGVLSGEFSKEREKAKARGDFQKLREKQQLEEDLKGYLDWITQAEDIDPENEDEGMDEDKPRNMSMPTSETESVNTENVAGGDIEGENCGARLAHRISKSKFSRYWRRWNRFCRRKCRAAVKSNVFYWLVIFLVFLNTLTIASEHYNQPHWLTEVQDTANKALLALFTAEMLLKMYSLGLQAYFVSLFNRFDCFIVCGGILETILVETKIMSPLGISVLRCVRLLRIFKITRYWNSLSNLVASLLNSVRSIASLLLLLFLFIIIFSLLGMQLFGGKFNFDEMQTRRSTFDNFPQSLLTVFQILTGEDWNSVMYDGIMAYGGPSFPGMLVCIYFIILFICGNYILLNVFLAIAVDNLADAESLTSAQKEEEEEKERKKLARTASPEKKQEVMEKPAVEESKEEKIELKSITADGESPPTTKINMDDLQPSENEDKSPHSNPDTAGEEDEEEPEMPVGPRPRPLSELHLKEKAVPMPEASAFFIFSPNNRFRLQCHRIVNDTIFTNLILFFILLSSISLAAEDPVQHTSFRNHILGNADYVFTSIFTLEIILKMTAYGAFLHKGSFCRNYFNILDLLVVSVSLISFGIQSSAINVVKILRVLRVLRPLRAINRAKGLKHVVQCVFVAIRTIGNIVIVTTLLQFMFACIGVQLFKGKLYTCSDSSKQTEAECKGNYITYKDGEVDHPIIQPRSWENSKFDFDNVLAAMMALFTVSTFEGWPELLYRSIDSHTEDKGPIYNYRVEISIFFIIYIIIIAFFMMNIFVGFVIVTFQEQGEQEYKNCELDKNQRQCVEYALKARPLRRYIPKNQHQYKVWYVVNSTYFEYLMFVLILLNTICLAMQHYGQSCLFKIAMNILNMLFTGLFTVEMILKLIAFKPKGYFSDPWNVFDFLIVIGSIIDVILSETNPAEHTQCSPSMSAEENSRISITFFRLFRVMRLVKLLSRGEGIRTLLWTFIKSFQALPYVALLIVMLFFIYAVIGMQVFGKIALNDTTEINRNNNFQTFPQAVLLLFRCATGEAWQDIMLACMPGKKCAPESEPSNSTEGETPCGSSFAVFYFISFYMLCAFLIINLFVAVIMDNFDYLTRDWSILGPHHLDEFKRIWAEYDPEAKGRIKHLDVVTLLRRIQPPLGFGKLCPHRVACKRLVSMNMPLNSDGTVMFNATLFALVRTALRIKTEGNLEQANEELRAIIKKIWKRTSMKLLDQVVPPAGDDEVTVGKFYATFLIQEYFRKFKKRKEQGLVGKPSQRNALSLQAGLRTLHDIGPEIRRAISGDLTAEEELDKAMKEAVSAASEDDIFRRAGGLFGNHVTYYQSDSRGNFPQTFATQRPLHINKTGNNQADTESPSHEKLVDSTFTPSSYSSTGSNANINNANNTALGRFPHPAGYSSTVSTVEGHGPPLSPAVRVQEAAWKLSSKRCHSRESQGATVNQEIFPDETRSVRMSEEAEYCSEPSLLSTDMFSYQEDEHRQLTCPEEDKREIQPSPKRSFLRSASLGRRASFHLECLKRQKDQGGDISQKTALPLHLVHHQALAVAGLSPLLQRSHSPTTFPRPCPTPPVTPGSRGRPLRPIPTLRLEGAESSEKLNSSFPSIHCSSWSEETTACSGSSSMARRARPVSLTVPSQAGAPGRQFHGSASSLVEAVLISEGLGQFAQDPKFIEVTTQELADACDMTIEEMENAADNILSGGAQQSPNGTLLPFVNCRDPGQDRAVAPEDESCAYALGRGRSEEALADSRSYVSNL
T1 sequence (O08532 25-1103 partner): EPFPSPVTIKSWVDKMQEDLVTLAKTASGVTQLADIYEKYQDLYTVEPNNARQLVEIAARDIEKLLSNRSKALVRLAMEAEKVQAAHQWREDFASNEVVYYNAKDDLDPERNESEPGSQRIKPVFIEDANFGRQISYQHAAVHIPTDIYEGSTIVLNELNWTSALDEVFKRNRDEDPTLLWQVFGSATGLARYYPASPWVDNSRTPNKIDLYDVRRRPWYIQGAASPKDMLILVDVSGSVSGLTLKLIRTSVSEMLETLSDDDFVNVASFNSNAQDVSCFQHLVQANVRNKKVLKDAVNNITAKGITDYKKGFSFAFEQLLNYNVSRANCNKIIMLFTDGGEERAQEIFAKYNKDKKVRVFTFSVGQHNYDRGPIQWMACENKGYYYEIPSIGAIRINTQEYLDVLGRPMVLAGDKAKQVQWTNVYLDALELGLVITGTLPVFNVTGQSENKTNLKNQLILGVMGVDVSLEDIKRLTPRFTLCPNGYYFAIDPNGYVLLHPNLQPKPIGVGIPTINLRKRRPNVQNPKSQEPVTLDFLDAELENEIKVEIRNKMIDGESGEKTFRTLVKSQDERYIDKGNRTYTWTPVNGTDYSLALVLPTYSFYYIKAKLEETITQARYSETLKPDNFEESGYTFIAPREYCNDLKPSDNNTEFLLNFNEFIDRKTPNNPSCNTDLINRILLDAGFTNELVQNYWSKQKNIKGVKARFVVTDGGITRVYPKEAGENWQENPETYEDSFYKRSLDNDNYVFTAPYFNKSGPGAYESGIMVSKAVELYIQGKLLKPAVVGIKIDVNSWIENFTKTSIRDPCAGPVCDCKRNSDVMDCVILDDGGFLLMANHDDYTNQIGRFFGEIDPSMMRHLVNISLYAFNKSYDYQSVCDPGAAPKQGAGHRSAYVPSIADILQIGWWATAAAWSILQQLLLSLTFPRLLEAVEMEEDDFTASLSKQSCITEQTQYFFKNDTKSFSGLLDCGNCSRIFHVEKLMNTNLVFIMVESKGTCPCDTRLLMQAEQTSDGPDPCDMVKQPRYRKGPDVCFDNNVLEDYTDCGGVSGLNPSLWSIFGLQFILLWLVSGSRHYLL
T1 sequence (P54285 whole entry partner): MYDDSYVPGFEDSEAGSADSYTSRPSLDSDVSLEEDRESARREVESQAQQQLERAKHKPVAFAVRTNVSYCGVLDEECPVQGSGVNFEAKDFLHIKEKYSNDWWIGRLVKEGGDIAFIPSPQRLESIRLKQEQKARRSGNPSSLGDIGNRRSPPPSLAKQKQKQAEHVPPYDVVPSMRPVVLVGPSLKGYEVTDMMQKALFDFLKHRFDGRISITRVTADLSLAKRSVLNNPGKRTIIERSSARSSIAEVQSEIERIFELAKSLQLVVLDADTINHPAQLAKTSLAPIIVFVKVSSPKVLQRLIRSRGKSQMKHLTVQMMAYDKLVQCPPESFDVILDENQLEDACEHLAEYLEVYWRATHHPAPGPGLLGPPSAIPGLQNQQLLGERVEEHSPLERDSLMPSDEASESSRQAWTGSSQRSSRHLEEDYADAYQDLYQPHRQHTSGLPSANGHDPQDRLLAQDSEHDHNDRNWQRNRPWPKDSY
Experimental for L-type calcium channel: So to identify the target of certain kudinosides, patch-clamp studies were used to examine the modulation of L-type calcium channel currents after Kudinosides treatment. In patch-clamp studies, whole-cell patch clamp recording of VDCC currents were performed at room temperature, in response to voltage pulses (−60 to +50 mV from a holding potential of −80 mV, 200 ms).

Turning to `CC1(C)[C@@H](O)CC[C@]2(C)[C@H]3C(=O)C=C4[C@@H]5C[C@@](C)(C(=O)O)CC[C@]5(C)CC[C@@]4(C)[C@]3(C)CC[C@@H]12` [Glycyrrhetinic acid, reference compound], the “relaxation of MCh-evoked force at final concentration of 500 μM” value (shortened to “relaxation of MCh-evoked force”) in test [1] is given as “about 50%”. It took 84.3 µM to reach half-maximal inhibition in test [1] (Mus musculus) (IC50).

As to `COC(=O)[C@@]1(C)CC[C@]2(C(=O)O)CC[C@]3(C)C(=CC[C@@H]4[C@@]5(C)C[C@H](O)[C@H](O)[C@@](C)(CO)[C@@H]5CC[C@]43C)[C@@H]2C1` [Phytolaccagenin, reference compound], in test [1], the “relaxation of MCh-evoked force” value is “about 50%”.

Take `C[C@@H]1O[C@@H](O[C@H]2[C@H](O[C@H]3[C@H](O[C@H]4CC[C@]5(C)[C@H]6CC=C7[C@@H]8CC(C)(C)CC[C@]8(C(=O)O)CC[C@@]7(C)[C@]6(C)CC[C@H]5C4(C)C)OC[C@H](O)[C@@H]3O)O[C@H](CO)[C@@H](O)[C@@H]2O)[C@H](O)[C@H](O)[C@H]1O` [Raddeanin A, reference compound]: the “relaxation of MCh-evoked force” value in test [1] was “about 50%”.

Regarding `C[C@@H]1O[C@@H](O[C@@H]2[C@H](O)[C@@H](O)[C@H](O[C@H]3CC[C@@]4(C)C(CC[C@]5(C)C4C=C[C@]46OC[C@@]7(CCC(C)(C)CC74)[C@@H](O)C[C@]65C)C3(C)C)O[C@@H]2CO[C@@H]2O[C@H](CO)[C@@H](O)[C@H](O)[C@H]2O)[C@H](O)[C@H](O)[C@H]1O` (stereo partly drawn) [Saikosaponin C, reference compound], in test [1], the “relaxation of MCh-evoked force” value is given as “about 50%” and the half-maximal inhibitory concentration (IC50) is over 150 µM.

In the case of `C[C@@H]1O[C@@H](O[C@H]2[C@H](O[C@H]3[C@H](O[C@H]4CC[C@@]5(C)[C@@H](CC[C@]6(C)[C@@H]5CC=C5[C@@H]7CC(C)(C)C[C@@H](O)[C@]7(C)CC[C@]56C)[C@@]4(C)CO)O[C@H](C(=O)O)[C@@H](O)[C@@H]3O)O[C@H](CO)[C@H](O)[C@@H]2O)[C@H](O)[C@H](O)[C@H]1O` [Soyasaponin Bb, reference compound], the “relaxation of MCh-evoked force” value in test [1] is “about 50%”.

Regarding `CC(C)(C)NCC(O)c1ccc(O)c(CO)c1` (stereo not drawn) [albuterol, reference compound], the “reduction of airway resistance at 1 minute after inhalation, 3 μg (positive control)” value in test [2] (3 μg inhaled, 1 minute, printed as 'led to a reduction of') is reported as 55.59±13.07%. In addition, the “effect on asthmatic airway resistance” value in test [2] (n-BuOH phase 30 μg, albuterol 3 μg, inhaled after MCh challenge) is on record as “significant reduction of airway resistance”. Further, in the test on human asthma (severe), the “duration of release of dyspnea” value is given as “could not be maintained overnight” and the “time to release of dyspnea” value was at most 3 min.

In the case of Kudinoside A, in the test on human asthma (severe), the “duration of release of dyspnea” value is “maintained overnight” and the “time to release of dyspnea” value stood at 5 min. Further, the “PEF value after inhalation” value in the test on human asthma (severe) (20 mM, 15 seconds inhalation, increased from 100) is 320. Further, the “decrease of current generated by L-type calcium channel compared to vehicle” value on L-type calcium channel is on record as “about 60%”. Also, the “force relaxed / inhibition of evoked force at 30 μM” value in test [1] (force evoked by acetylcholine, cumulative concentrations, 30 μM) is 80%. Moreover, the “relaxation of evoked force of airway smooth muscle / bronchial rings” value in test [1] is on record as “significantly relaxed bronchial rings in a dose-dependent manner”.

As to Kudinoside C, in test [2], the “inhibition of airway constriction in vivo” value is “significant inhibition of airway constriction”. In addition, the “relaxation of evoked force of airway smooth muscle / bronchial rings” value in test [1] is “strong relaxation effect on airway smooth muscles”.

As to Kudinoside H, in test [2], the “inhibition of airway constriction in vivo” value is recorded as “little inhibition activity of airway constriction in vivo”. In addition, the “relaxation of evoked force of airway smooth muscle / bronchial rings” value in test [1] is recorded as “fails to show effective bronchial ring relaxation; also recorded: little effect on relaxation in vitro”.
